Data reported in patent US7579322B2, “Compositions and methods for promoting myocardial and peripheral angiogenesis” (Zimmer Orthobiologics, Inc., priority 2001, dated 2009).
Ends that are not written are not given here.

Experiments:
[1] = system: human aortic endothelial cells; assay: In vitro cell migration assay (chemotaxis tray / modified Boyden chamber), endothelial cells; type: cell-based; details: for migration of human aortic endothelial cells: compared to negative control / scramble peptides, 4 hours incubation
Description: (§1) The ability of IGD-motif peptides according to the present invention to promote cell migration of human endothelial and smooth muscle cells, which are processes characteristic of angiogenesis, was evaluated by conducting cell migration assays for the peptides of SEQ ID NOS 1 and 2, and a scramble of the IGD peptide characterized by the DIG sequence. A capped version of the scramble characterized by the GGDIGGG (SEQ ID NO:7) sequence was also tested.
(§2) Chemotaxis trays (Chemo Tx disposable migration chamber, 6 mm diameter, 300 μl/well, 96 wells with 8 μm filter membranes from Neuro Probe, Inc., Gaithersville, Md.) for evaluating cell migration of the peptides were sterilized by placing the trays under UV light overnight. Further operations with the membrane were carried out under aseptic conditions. The filter membranes were loaded with gelatin to provide a suitable environment for the cells testing by soaking in 3% acetic acid overnight and then for 2 hours in 0.1 mg/ml gelatin. They were then rinsed in sterile water and allowed to air dry. Such membranes may be stored at room temperature for up to 1 month.
The cells to be used in the assay (endothelial cells or smooth muscle cells) were starved for 24 hours before use in appropriate culture media containing 0.1% Fetal Bovine Serum (“FBS”) instead of the customary 10% FBS serum, and 1× penicillin-streptomycin antibiotics. The wells of the 96 well chamber of the chemotaxis unit were filled with media containing 0.1% serum alone or 0.1% serum and the test material (control or chemoattractant respectively). The filter membrane was positioned over the plate, aligning the holes in the corners of the frame with the four pins on the microplate, and the membrane was snapped into place making sure that the media in the wells touched the membrane completely. Fifty (50) μl of cell suspension in the starvation-media, at a concentration of 4×10^4 viable cells per charge were plated onto each site (over each well). The plate was incubated at 37° C. in an atmosphere of 5% CO2 for 4 hours.
(§3) After incubation the lid was removed and with the filter still in place the cells on the upper surface of the membrane were gently wiped off and washed by carefully flushing the top surface of the filter with media by holding the plate with filter at a 45° angle over a container. The cells on the undersurface of the membrane were then fixed in methanol (˜20 minutes) and stain with Diff-Quik Staining Set. The membrane was then allowed to dry and the number of cells that migrated through the filter pores was determined by counting the number in a field under a light microscope.

[2] = system: human aortic endothelial cells; assay: In vitro cell proliferation assay (CyQuant); type: cell-based; details: for proliferation of human aortic endothelial cells: compared to controls, 48 hours, two different concentrations
Description: The capacity of IGD-motif peptides according to the present invention to promote […] of human aortic endothelial cells was evaluated by conducting in vitro cell proliferation assays for the peptide of SEQ ID NOS 1 and 2, the DIG scramble peptide, and the capped version of the scramble, GGDIGGG (SEQ ID NO:7). Human aortic endothelial cells grown to ˜95% confluency were seeded (5000 cells/well) in growth medium for four hours to allow cells to adhere. The cells were then transferred to the starvation medium described in Example 1 and starved for about 18 hours. The cells were then transferred to starvation medium containing the test peptide, and the cells were allowed to proliferate for an additional 48 hours. The medium was then removed and the wells were washed with PBS. The cells were then subjected to a single freeze-thaw cycle. CyQuant reagent (Molecular Probes, Eugene, Oreg.) was then added to the cells according to the manufacturer's instructions and the cells incubated for 5 minutes in the dark. The intensity of the color—which is directly proportional to the number of cells—is read at an excitation wavelength of 485 nm and the emission wavelength set at 535 nm.

[3] = system: human smooth muscle cells; assay: In vitro cell migration assay (chemotaxis tray), smooth muscle cells; type: cell-based; details: compared to controls; 4 hours incubation
Description: as §1, §2
The cells to be used in the assay (endothelial cells or smooth muscle cells) were starved for 24 hours before use in appropriate culture media containing 0.1% Fetal Bovine Serum (“FBS”) instead of the customary 10% FBS serum, and 1× penicillin-streptomycin antibiotics. The wells of the 96 well chamber of the chemotaxis unit were filled with media containing 0.1% serum alone or 0.1% serum and the test material (control or chemoattractant respectively). […]
as §3, with “The cells on the undersurface of the membrane were then fixed in methanol (˜20 minutes) and stain with Diff-Quik Staining Set.” left out

[4] = system: quail chorioallantoic membrane (CAM); assay: Quail chorioallantoic membrane (CAM) angiogenesis assay; type: in vivo, Japanese quail (cotumix cotumix japonica); details: for angiogenesis / increase in blood vessels in quail CAM: 24 hours incubation, compared to controls / scramble peptides
Description: The activity of IGD-motif peptides for inducing migration and proliferation in endothelial or smooth muscle cells in an in vitro quail chorioallantoic membrane (CAM) model was assayed in a similar manner to that described by Parsons-Wingerter et al., Microvascular Research 55:201-214 (1998), the disclosure of which is hereby incorporated herein by reference. Briefly, fertilized Japanese quail eggs (cotumix cotumix japonica) were opened onto petri dishes on day 3 post-incubation. After 7 days of culture, the four IGD-motif peptides tested in Examples 1 and 2 (IGD, GGIGD (residues 1-5 of SEQ ID NO:2), DIG, GGDIGGG (SEQ ID NO: 7)) each dissolved in 1% polyvinyl pyrrolidine prewarmed to 37° C., were distributed evenly onto the surface of a CAM in separate petri dishes. After 24 hours of incubation, the CAM's were fixed, dissected and photographed at 10× magnification to visualize the arterial vascular tree, including endstage vessels. Digital images of triplicate CAM specimens were acquired at 10× magnification in grayscale, binarized to black-and-white, and skeletonized. The vessel branching pattern was analyzed and quantified by the fractal dimension.

dermal fibroblasts = details: cited from earlier work
rat wound healing model = details: under certain conditions; cited from earlier work

Row | Substance | migration of human aortic endothelial cells [1] | proliferation of human aortic endothelial cells [2] | cell migration of human smooth muscle cells [3] | angiogenesis / increase in blood vessels in quail CAM [4] | migration of human aortic endothelial cells compared to the uncapped peptide ([1]; at a 10-fold lower concentration, FIG. 1A) | migration of human aortic endothelial cells ([1]; listed as SEQ ID NO. 2) | proliferation response relative to the uncapped tripeptide ([2]; FIG. 2) | angiogenesis / increase in blood vessels in quail CAM ([4]; listed as capped peptide) | blood vessel increase in quail CAM compared to the uncapped peptide ([4]; at equivalent concentrations, FIG. 3A) | optimal concentration for migration of human aortic endothelial cells ([1]; FIG. 1A) [μm] | migration of human aortic endothelial cells ([1]; listed as IGD tripeptide) | migration of human aortic endothelial cells ([1]; listed as SEQ ID NO. 1) | cell migration of dermal fibroblasts (dermal fibroblasts) | angiogenesis / increase in blood vessels in quail CAM ([4]; listed as uncapped peptide) | fibroblast migration (rat wound healing model) | vessel number (rat wound healing model)
1 | GGDIGGG (not fully specified) [reference compound] | Neither the DIG scramble nor the capped GGDIGGG scramble (SEQ ID NO:7) showed cell migration significantly greater than controls | Neither the DIG scramble nor the capped GGDIGGG scramble (SEQ ID NO:7), in contrast, showed cell migration significantly greater than controls | Neither the DIG scramble nor the capped GGDIGGG scramble (SEQ ID NO:7) showed cell migration significantly greater than controls | neither the DIG scramble nor the GGDIGGG (SEQ ID NO:7) capped scramble promoted angiogenesis significantly better than controls | – | – | – | – | – | – | – | – | – | – | – | –
2 | GGIGDGG (not fully specified) [Gly-Gly-Ile-Gly-Asp-Gly-Gly] | increased migratory response | promoted cell proliferation | promoted cell migration | promoted angiogenesis | better migration compared to the uncapped peptide | promoted cell migration | nearly twice that of the uncapped tripeptide | increase in blood vessels | better than the uncapped peptide | – | – | – | – | – | – | –
3 | Ile-Gly-Asp (IGD; Cell-attachment-promoting peptide) | increased migratory response | promoted cell proliferation | promoted cell migration | promoted angiogenesis | – | – | – | – | – | 100 | dose dependent effect | promoted cell migration | can induce cell migration | increase in blood vessels | – | –
4 | Ile-Gly-Asp-Ser (IGDS; Cell-attachment-promoting peptide) | – | – | – | – | – | – | – | – | – | – | – | – | – | – | increase | increase
